US4943566A, “Novel 17-aryl-steroids” (Roussel Uclafi, priority 1987, dated 1990)

Tested on: mammary Tumoral cells MCF-7
Assay: Anti-proliferative activity against the increase of mammary tumoral cells MCF-7 (ADN by DABA fluorimetry)
Format: cell-based
Details: Homo sapiens, MCF7, 144 h; MCF-7 cells, SVF medium, 6 days, ADN content; read-out: CI50 in nM (concentration which inhibits by 50% the increase in the MCF 7 cells)
Description: The cell culture line MCF-7 was maintained in culture in SVF (1) medium at 37° C. in a humid atmosphere containing 5% CO2. The cells at subconfluence were collected by trypsination (0.05% trypsine, 0.02% EDTA) then rinsed by gentle centrifiguation. A sample of the cells in suspension was counted by the Malassez cell. To study the increase, the cells resuspended in SVF medium were innoculated at a rate of 30,000 cells per well in a multiwell plate (24 wells per 2.5 cm^2) 24 hours after the innoculation (Day 0), the test compound was added to the medium in an ethanolic solution (final ethanol concentration is 0.1%) a concentration of 10^-6 M. The control wells received the same concentration of ethanol. The mediums were totally renewed at 48 hours. At the end of the experiment (Day 6), the medium was aspirated and the cells were immediately fixed by 150 μl of methanol after a dose of ADN. The anti-proliferative activity of the products was determined by the capacity to inhibit ADN increase.
ADN is dosed by a fluorimetric method using DABA (3,5-diamino benzoic acid). 150 μl of DABA was added to each well and the plates were incubated for 45 minutes at 56° C. and then 1.5 ml of 1N hydrochloric acid was added. The fluoresence was measured with a fluorimeter (excitement length 400 nM-length of emission wave 500 nM). The amount of ADN per well was evaluated with respect to a standard scale obtained by treating under the same conditions an ADN standard of the calf thymus. The concentration in nM which inhibit by 50% the increase in the MCF 7 cells or CI50 was determined in the same manner with the results of the following Table.
The medium for culture of calf fetal serum (SVF) was prepared as follows: MEM medium (minimal essential medium) to which was added non-essential amino acids (GIBCO), peni-strepto (penicillin 100 U/ml, streptomycine 0.1 mg/ml), 0.1% fungizone, 50 ng/ml of insulin and a 10% final concentration of calf fetal serum free of endrogenic steroids.

SMILES | IC50 [nM]
COc1ccc(C2=CC[C@H]3[C@@H]4CCC5=CC(=O)CCC5=C4[C@@H](c4ccc(N(C)C)cc4)C[C@]23C)cc1 [Example 5, 11β-(4-dimethylamino-phenyl)-17-(4-methoxy-phenyl)-Δ^4,9,16-estratriene-3-one] | 1000
CN(C)c1ccc([C@H]2C[C@@]3(C)[C@@H](CC[C@@]3(O)c3ccc(O)cc3)[C@@H]3CCC4=CC(=O)CCC4=C32)cc1 [6 Product A] | 50
CN(C)c1ccc([C@H]2C[C@]3(C)C(c4ccc(O)cc4)=CC[C@H]3[C@@H]3CCC4=CC(=O)CCC4=C32)cc1 [6 Product B] | 50
CN(C)c1ccc(C2=CC[C@H]3[C@@H]4CCC5=CC(=O)CCC5=C4[C@@H](c4ccc(N(C)C)cc4)C[C@]23C)cc1 [Example 3, 11β,17-bis-(4-dimethylamino-phenyl)-Δ^4,9,16-estratriene-3-one] | 800
